Test results taken from patent publication US7455990B2, “Method of extracting recombinant hexose oxidase” (priority 1999, dated 2008).
Marks after values point to notes of the source that are not given here.

What was measured:
[1] = test system: cell suspension (HOX9910B); experiment: Comparison between CTAB and other emulsifiers for extraction of HOX; assay type: cell-based, Hansenula polymorpha; conditions: 20 h, 25°C, control (cells and buffer) = 100
Description: Five mL of cell suspension (cells+supernatant) was added to a 15 mL centrifuge tube (HOX9910B, 305 g cells/liter wet weight, 1.6 U/ml extracellular HOX activity). Cells were separated by centrifugation at 4000 g for 10 min. Cells were then re-suspended in 4.0 mL 25 mM citric acid, pH 6.3 supplemented with either CTAB, emulsifiers SLL, YN, capric acid, lysolecithin, or lecithin. The cells were then incubated for 20 hours at 25° C. (500 rpm).

[2] = test system: Hansenula polymorpha; experiment: HOX extraction with different quaternary ammonium compounds; assay type: cell-based; conditions: final concentration 0.4% (w/v); 24 h, 25°C, 200 RPM; LTAB = 100
Description: Several quaternary ammonium compounds were tested with respect to extraction of the intracellular HOX enzyme from Hansenula polymorpha. A sample of fermentation broth was withdrawn from a 6 L scale fermentation where the biomass concentration was approximately 340 g wet weight per L. One mL of a 4% (w/v) solution of each of the quaternary ammonium compounds listed in Table 8 was added to 9 mL of fermentation broth in plastic tubes. After 24 h of incubation at 25° C. at 200 RPM the tubes were centrifuged 10 min. at 12000 g. The supernatants were analysed for HOX activity using the HOX assay as previously described.

[3] = test system: cell suspension (HOX9926-7); experiment: Extraction of HOX by CTAB combined with salts and at different temperatures; assay type: cell-based, Hansenula polymorpha; conditions: for HOX activity, %: 26 h, 25°C, control = 100
Description: In order to examine the mechanism of the CTAB effect, CTAB was combined with chaotrophic and nonchaotrophic salts. Five mL cell suspension (cells+supernatant) was added to a 15 mL centrifuge tube (HOX9926-7, 317 g cells/liter wet weight, 0.3 U/mL extracellular HOX activity). Cells were separated by centrifugation at 4000 g for 10 min. The supernatant was then supplemented with either CTAB, CTAB+NaCl, CTAB+urea, CTAB+ammonium sulphate, or the non-ionic detergent, octyl-glucoside. The cells were then re-suspended in 4.0 mL supernatant and incubated for 26 hours at 25° C. (500 rpm). In this experiment, the effect of shaking and temperature was also investigated. After incubation, the cell-free extract was used to estimate HOX activity using the HOX assay as outlined in Example 4.

[4] = test system: Pichia pastoris strain #349; experiment: HOX extraction with LTAB from Pichia pastoris; assay type: cell-based; conditions: 180 μL of 10% (w/v) LTAB in 9 mL broth; 24 h, 30°C; control = 100
Description: The extracting effect of LTAB was tested on the Pichia pastoris strain #349 that produces HOX intracellularly. A sample of fermentation broth was withdrawn from a 6 L scale fermentation where the biomass concentration was approximately 232 g wet weight per L. Nine mL of fermentation broth was added to plastic tubes together with 0 (control) or 180 μL of a 10% (w/v) solution of LTAB. After 24 h of incubation at 30° C. at 20 RPM the tubes were centrifuged 5 min. at 9000 g. The supernatants were analysed for HOX activity using the HOX assay as previously described.

[5] = Determination of LTAB by LC-ESI-MS (optimised method) in fermentation supernatants; conditions: 0.20% (w/v) LTAB added
Description: The analysis method for the quaternary ammonium compounds was optimised by using a different column, and by using different mobile phase. Two 90 L scale fermentations (Vest0002b with a biomass concentration of 314 g/L wet cells and Vest0003b with a biomass concentration of 332 g/L wet cells) were added LTAB to a concentration of 0.20% (w/v), and HOX was extracted for 24 h. A sample from each fermentation was centrifuged at 10000 g for 10 minutes, and the resulting supernatants were withdrawn for LTAB analysis. The following method was used to quantify the LTAB content in the supernatants by means of LC-ESI-MS on a Hewlett-Packard 1100 HPLC-MS system consisting of the following units:
The system was equipped with a PLRP-S, 100 Å, 5 μm, 250×4.6 […] id. (Polymer Laboratories) column. Column temperature was 25° C.
The chromatographic conditions were a mobile phase consisting of 0.1% heptafluorobutyric acid in methanol. The column was run with a solvent flow rate of 1.00 mL/min and an injection volume of 5 μL. The samples were diluted 25 fold with methanol and filtered through Gelman GHP Acrodisc 13 mM Minispike […] before injection.
The detector settings were the following: SIM parameters: m/z 228.1 (lauroyltrimethylammonium cation). […]

[6] = test system: H. polymorpha; experiment: Comparison of mechanical and LTAB recovery of glucan lyase (DNS method); assay type: cell-based, Hansenula polymorpha; conditions: induced cells, transformants 2 and 8; 0.2% LTAB versus Mini Bead-Beater
Description: The cells are resuspended in 5 mM sodium acetate pH=5.5 with 0.2% LTAB at 30% wet biomass in order to lyse the cells and release the intracellular glucan lyase.
The tubes are incubated over night with shaking at 37° C. The cells are harvested by centrifuging at 4000 rpm in 10 minutes and the glucan lyase activity is determined in the cell-free extract and in the pellet. This is done to check if LTAB had opened the cells successfully before starting the purification of glucan lyase.
Two transformants that expressed a high level of glucan lyase (transformant number 2 and 8) are grown at 24° C.
To compare the specific activity under repressed and induced conditions samples are collected when the cells are grown in YND+2% glucose (repressed) and in YND+1% glycerol with 1% methanol added on the second day of growth (induced).
The assay is performed as described in S. Yu et al., 1998. The red colour indicates glucan lyase activity is much stronger when the induced cells are opened with LTAB compared with opening of the cells mechanically on a Mini Bead-Beater (E1-E12 compared with C1-C12). […] When the cells are grown in YND+2% glucose a very low specific activity is observed as expected since the FMD promoter is repressed in this media. […] The assay detected a quite high glucan lyase activity in the pellet.

[7] = test system: Hansenula polymorpha; experiment: Time course of HOX extraction with CTAB, LTAB and CTAC; assay type: cell-based; conditions: 25°C
Description: The time course of HOX extraction was studied with CTAB, LTAB and CTAC. A fermentation sample containing 280 g wet weight of Hansenula polymorpha per L was withdrawn from the fermentor. A 4% (w/v) solution of CTAB, LTAB and CTAC was added to a final concentration of 0.2 or 0.4% (w/v) to plastic tubes containing 9 mL of fermentation broth. After 0, 7, 17, 24, and 48 h of incubation at 25° C. at 200 RPM the tubes were centrifuged 10 min. at 12000×g. The supernatants were analysed for HOX activity using the HOX assay as previously described.

[8] = test system: Hansenula polymorpha; experiment: HOX extraction with CTAB compared to Triton X-100; assay type: cell-based; conditions: for HOX activity: 22 h, 25°C, 200 rpm, control ferment 1.2
Description: CTAB or Triton X-100 was added to 5 mL of ferment, (sample HOX9954, Mut 45, 18.10.99, HVP) in a centrifuge tube. Water was added to the control. The samples were incubated at 25° C. for 22 h at 200 rpm. After incubation the samples were centrifuged and the supernatant was analyzed for HOX activity as previously described.

[9] = 0.4% in 25 mM citric acid pH 6.3
[10] = 0.5% in 25 mM citric acid pH 6.3
[11] = 1.0% in 25 mM citric acid pH 6.3

3-sn-phosphatidylcholine [lecithin]
HOX activity, % [1, 9]: 140%

CCCCCCCCCCCCCC[N+](C)(C)C.[Cl-] [MTAC, Myristyl Trimethyl Ammonium Chloride]
Extracted HOX activity normalised with extracted amount with LTAB [2]: 71

CCCCCCCCCCCCCCCCCC(=O)[N+](C)(C)C.[Br-] [STAB, Stearoyl Trimethyl Ammonium Bromide]
Extracted HOX activity normalised with extracted amount with LTAB [2]: 38

CCCCCCCCCC(=O)O [capric acid, decanoic acid]
HOX activity, % [1, 10]: 120% | HOX activity, % [1, 11]: 140%

CCCCCCCCCCCC(=O)OC(C)C(=O)OC(C)C(=O)[O-].[Na+] (stereo not shown) [emulsifier SSL, Sodium Lauroyl Lactylate]
HOX activity, % [1, 10]: 160% | HOX activity, % [1, 11]: 140%

CCCCCCCCO[C@@H]1O[C@H](CO)[C@@H](O)[C@H](O)[C@H]1O [octyl-glycoside, octyl-glucoside]
extracting effect on HOX ([3]; 0.2% and 0.4%): no significant extracting effect | HOX activity, % ([3]; 0.2%): 130% | HOX activity, % ([3]; 0.4%, 500 rpm): 190%

Lauroyl Trimethyl Ammonium Bromide [LTAB]
Extracted HOX activity normalised to the control tube without LTAB [4]: 3000^c | share of the added LTAB found in the cell free fraction [5]: about 27% | specific activity of glucan lyase, LTAB-treated cells versus mechanical opening [6]: ~60 fold | Extracted HOX activity normalised with extracted amount with LTAB [2]: 100 | Extracted HOX normalised to 0.4% (w/v) LTAB after 48 h ([7]; 0.2% (w/v), 0 h): 5 | Extracted HOX normalised to 0.4% (w/v) LTAB after 48 h ([7]; 0.2% (w/v), 7 h): 15 | Extracted HOX normalised to 0.4% (w/v) LTAB after 48 h ([7]; 0.2% (w/v), 17 h): 49 | Extracted HOX normalised to 0.4% (w/v) LTAB after 48 h ([7]; 0.2% (w/v), 24 h): 65 | Extracted HOX normalised to 0.4% (w/v) LTAB after 48 h ([7]; 0.2% (w/v), 48 h): 78 | Extracted HOX normalised to 0.4% (w/v) LTAB after 48 h ([7]; 0.4% (w/v), 0 h): 6 ± 1, | Extracted HOX normalised to 0.4% (w/v) LTAB after 48 h ([7]; 0.4% (w/v), 7 h): 25 | Extracted HOX normalised to 0.4% (w/v) LTAB after 48 h ([7]; 0.4% (w/v), 17 h): 74 | Extracted HOX normalised to 0.4% (w/v) LTAB after 48 h ([7]; 0.4% (w/v), 24 h): 83 ± 8, | Extracted HOX normalised to 0.4% (w/v) LTAB after 48 h ([7]; 0.4% (w/v), 48 h): 100 ± 25,

lysophosphatidylcholine [lyso-lecithin]
HOX activity, % [1, 9]: 260%

polyethoxylated octylphenol [Triton X-100]
HOX activity ([8]; 0.1%): 1.5 U/mL | extracting effect on HOX ([8]; 0.1-1.0%): no extracting effect | HOX activity ([8]; 0.2%): 1.6 U/mL | HOX activity ([8]; 0.4%): 1.8 U/mL | HOX activity ([8]; 0.6%): 1.9 U/mL | HOX activity ([8]; 1.0%): 1.9 U/mL
